Key:
Assay in all cases: relative viability (nuclei count vs DMSO), 5 days (fraction); higher = more cells survive
BI-D1870 + Olaparib = compound: CC(C)CCN1c2nc(Nc3cc(F)c(O)c(F)c3)ncc2N(C)C(=O)C1C [BI-D1870] + O=C(c1cc(Cc2n[nH]c(=O)c3ccccc23)ccc1F)N1CCN(C(=O)C2CC2)CC1 [Olaparib] (partner 8 µM)
In short: (§1)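 Lung cancer cell lines were pin-tool dosed in 1536-well plates on the day after seeding, with either a lone drug or a fixed anchor-drug dose plus five library-drug doses (not always all listed) in √10 steps. Nuclei were counted on 4× images after 5 days. Relative viability is the ratio of treated-well to vehicle-well nuclei counts, with each value a median of duplicate plates.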

Zebularine + Linsitinib = compound: O=c1ncccn1[C@@H]1O[C@H](CO)[C@@H](O)[C@H]1O [Zebularine] + C[C@]1(O)C[C@@H](c2nc(-c3ccc4ccc(-c5ccccc5)nc4c3)c3c(N)nccn32)C1 [Linsitinib] (partner 1 µM)
In short: as §1

Zebularine + Bortezomib = compound: O=c1ncccn1[C@@H]1O[C@H](CO)[C@@H](O)[C@H]1O [Zebularine] + CC(C)C[C@H](NC(=O)[C@H](Cc1ccccc1)NC(=O)c1cnccn1)B(O)O [Bortezomib] (partner 0.002 µM)
In short: as §1

BI-D1870 + Alpelisib = compound: CC(C)CCN1c2nc(Nc3cc(F)c(O)c(F)c3)ncc2N(C)C(=O)C1C [BI-D1870] + Cc1nc(NC(=O)N2CCC[C@H]2C(N)=O)sc1-c1ccnc(C(C)(C)C(F)(F)F)c1 [Alpelisib] (partner 2 µM)
In short: as §1

Cell Line	relative viability (BI-D1870 + Olaparib; first compound 0.04 µM)	relative viability (BI-D1870 + Olaparib; first compound 0.1265 µM)	relative viability (BI-D1870 + Olaparib; first compound 0.4 µM)	relative viability (BI-D1870 + Olaparib; first compound 1.265 µM)	relative viability (BI-D1870 + Olaparib; first compound 4 µM)	relative viability (Zebularine + Linsitinib; first compound 1 µM)	relative viability (Zebularine + Linsitinib; first compound 3.162 µM)	relative viability (Zebularine + Linsitinib; first compound 10 µM)	relative viability (Zebularine + Linsitinib; first compound 31.62 µM)	relative viability (Zebularine + Linsitinib; first compound 100 µM)	relative viability (Zebularine + Bortezomib; first compound 1 µM)	relative viability (Zebularine + Bortezomib; first compound 3.162 µM)	relative viability (Zebularine + Bortezomib; first compound 10 µM)	relative viability (Zebularine + Bortezomib; first compound 31.62 µM)	relative viability (Zebularine + Bortezomib; first compound 100 µM)	relative viability (BI-D1870 + Alpelisib; first compound 0.04 µM)	relative viability (BI-D1870 + Alpelisib; first compound 0.1265 µM)	relative viability (BI-D1870 + Alpelisib; first compound 0.4 µM)	relative viability (BI-D1870 + Alpelisib; first compound 1.265 µM)	relative viability (BI-D1870 + Alpelisib; first compound 4 µM)
LCLC-97TM1	0.521	0.33	0.38	0.634	0.301	0.192	0.168	0.144	0.128	0.11	1.41	0.627	0.473	0.253	0.217	0.254	0.218	0.219	0.276	0.188
NCI-H1703	–	0.439	0.328	0.487	0.315	0.633	0.512	0.644	0.941	0.525	0.273	0.302	0.296	0.512	0.411	0.263	0.341	0.301	0.379	0.305
LCLC-103H	0.813	0.68	0.676	0.764	0.671	1.17	1.24	0.87	1	0.945	1.19	1.1	0.886	1.19	1.01	0.96	0.937	0.864	1.1	0.874
PC-3 [JPC-3]	1.25	1.08	1.08	0.966	0.831	1.05	0.956	0.843	0.856	0.492	0.912	0.772	0.464	0.729	0.591	1.07	0.971	1.03	1.13	1
BEN	1.23	1	1.02	1.11	0.806	0.911	0.777	0.432	0.384	0.308	0.938	0.714	0.345	0.372	0.265	1.1	0.914	1	1.13	0.884
NCI-H1666	0.751	0.715	0.736	0.7	0.72	0.748	0.862	0.675	0.804	0.562	0.884	0.805	0.745	0.879	0.612	0.77	0.767	0.987	1.14	0.816
LC-2-ad	0.691	0.66	0.725	0.609	0.624	0.924	0.844	0.591	0.496	0.157	1.09	0.76	0.521	0.605	0.148	0.962	0.836	0.849	0.855	0.701
SK-LU-1	0.497	0.377	0.41	0.427	0.35	1.21	0.936	0.588	0.611	0.564	1.3	0.913	0.576	0.737	0.502	1.04	0.879	0.807	0.653	0.237
COR-L 105	0.79	0.533	0.713	0.687	0.678	0.986	0.956	0.928	1.22	0.939	0.978	0.771	0.694	1.21	0.843	1.2	0.803	1.29	1.09	1.05
NCI-H1975	0.869	0.708	0.784	0.731	0.499	1.01	0.861	0.582	0.456	0.271	0.403	0.338	0.288	0.267	0.233	0.646	0.572	0.518	0.55	0.34
Calu-6	0.658	0.534	0.479	0.359	0.254	1.03	0.946	0.734	0.864	0.209	1.04	0.85	0.914	0.77	0.306	1	0.843	0.951	0.7	0.644
NCI-H1993	1.26	0.907	0.987	1.15	0.995	0.775	0.637	–	0.795	0.657	1.26	1.1	–	1.14	0.778	0.619	0.677	0.643	0.708	0.811
RERF-LC-KJ	1.09	0.831	0.936	0.914	0.306	0.99	0.916	–	1.01	1.03	1.11	0.996	0.92	1.36	1.25	0.835	0.76	0.761	0.688	0.689
NCI-H23	0.307	0.263	0.294	0.301	0.212	0.671	0.549	–	0.646	0.548	1.15	1.06	–	0.918	0.783	0.779	0.508	0.614	0.78	0.664
HCC-366	0.503	0.348	0.295	0.42	0.229	0.764	0.75	0.428	0.355	0.0776	1.05	0.976	0.292	0.685	0.116	0.47	0.351	0.344	0.514	0.359
EMC-BAC-2	0.513	0.451	0.453	0.512	0.455	0.899	0.886	0.637	0.879	0.839	1.1	1.09	0.732	1.09	1.11	0.815	0.649	0.723	0.765	0.69

Source: the supplement of paper PMC10307832
